Reference: patent US10350391B2, “Drug delivery medical device” (Micell Technologies, Inc., priority 2009, dated 2019)
Values joined by “and” are separate entries in the source; they are usually repeats but may differ in a detail not shown here. Equal entries are not always repeated. Where two headings read alike, the source gives them in different places.

How the values were obtained:
[1] = Sirolimus concentrations in whole blood samples after balloon inflation; type: in vivo, rabbit; settings: for Est. Total Sirolimus in Blood: based on 56 mL per kg
Procedure: (§1) • 4 balloons—Balloons inflated in pre-dilated arteries (right iliac) for 60 seconds • 4 balloons—Balloons inflated in non-dilated arteries (left iliac) for 60 seconds B. Tracking Studies: 4 balloons (1 rabbit) • 4 balloons—Balloons inserted and not inflated in aorta for 2 min, then removed C. Sirolimus Quantification • Sirolimus content from: 8 balloons inflated in rabbit iliac arteries 4 balloons not inflated in rabbit aorta 8 rabbit iliac arteries (after balloon inflation) 8 whole blood samples (2 samples/rabbit) • Liver, kidney, spleen, heart, lung: stored (−80° C.) for later drug analysis Sirolimus Concentrations in Rabbit Iliac Arteries
• Baseline samples taken before balloon inflation • After 2nd balloon inflation, blood samples were taken 5-15 min later • 5-15 min samples are the cumulative Sirolimus concentration from the inflation of 2 drug coated balloons per animal Total Sirolimus in blood based on 56 mL per kg Sirolimus Concentrations on Drug Coated Balloons (Rabbits)

[2] = Sirolimus content of rabbit iliac arteries after inflation of sirolimus coated balloons; type: in vivo
Procedure: GHOST Rapid Exchange (Rx) Catheter was used in this example. Ghost 3.0×18 mm Rx catheter balloons were coated and used in animal study
A. Expansion in rabbit iliac arteries: 8 balloons (4 rabbits)
as §1
• Drug coated balloons in right iliac arteries inflated/deflated—10-20 min before sacrifice • Drug coated balloons in left iliac arteries inflated/deflated—5-15 min before sacrifice Transfer Efficiency of Sirolimus to Rabbit Iliac Arteries
• Balloons inflated for 1 min in respective iliac arteries • % Sirolimus transferred to artery based on balloon batch average from UV-Vis data • Estimated time artery exposed to blood flow is time after balloon inflation

[3] = Combined Right + Left Iliac Arteries, n = 8

CO[C@H]1C[C@@H]2CC[C@@H](C)[C@@](O)(O2)C(=O)C(=O)N2CCCC[C@H]2C(=O)O[C@H]([C@H](C)C[C@@H]2CC[C@@H](O)[C@H](OC)C2)CC(=O)[C@H](C)/C=C(\C)[C@@H](O)[C@@H](OC)C(=O)[C@H](C)C[C@H](C)/C=C/C=C/C=C/1C [Sirolimus, rapamycin]
Est. Total Sirolimus in Blood ([1]; average of 4 rabbits (5-15 min)): 5.4 ± 2.3 µg and 5.4 µg | Est. Total Sirolimus in Blood ([1]; rabbit #1, 15 min): 2.7 µg | Est. Total Sirolimus in Blood ([1]; rabbit #2, 5 min): 8.2 µg | Est. Total Sirolimus in Blood ([1]; rabbit #3, 5 min): 5.9 µg | Est. Total Sirolimus in Blood ([1]; rabbit #4, 10 min): 4.8 µg | concentration at 15 min ([1]; rabbit, whole blood, rabbit #1, 15 min after 2nd balloon inflation, cumulative of 2 coated balloons, read-out: Extraction Conc.): 11.4 ng/mL | concentration at 5 min ([1]; rabbit, whole blood, rabbit #2, 5 min after 2nd balloon inflation, cumulative of 2 coated balloons, read-out: Extraction Conc.): 30.8 ng/mL | concentration at 5 min ([1]; rabbit, whole blood, rabbit #3, 5 min after 2nd balloon inflation, cumulative of 2 coated balloons, read-out: Extraction Conc.): 22.2 ng/mL | concentration at 10 min ([1]; rabbit, whole blood, rabbit #4, 10 min after 2nd balloon inflation, cumulative of 2 coated balloons, read-out: Extraction Conc.): 19.3 ng/mL | Extraction Conc. ([1]; whole blood, average of 4 rabbits (5-15 min)): 20.9 ng/mL | Average Sirolimus [2, 3]: 197.2 ± 85.3 ng/mg and 197.2 ng/mg | Total Sirolimus per Artery Average [2, 3]: 4.7 µg | Total Sirolimus per Artery Average ([2]; Left Iliac (uninjured), n = 4): 3.9 µg | Average Sirolimus ([2]; Left Iliac (uninjured), n = 4, coated balloon inflated 60 s, 5-15 min before sacrifice): 216.1 ng/mg | Total Sirolimus per Artery Average ([2]; Right Iliac (denuded), n = 4): 5.4 µg | Average Sirolimus ([2]; Right Iliac (denuded), n = 4, coated balloon inflated 60 s, 10-20 min before sacrifice): 178.3 ng/mg | Total Sirolimus per Artery ([2]; average of the 8 balloons/arteries): 4.7 µg | % Sirolimus Transferred to Artery ([2]; average of the 8 balloons/arteries, based on balloon batch average from UV-Vis data): 7.8±2.8% and 7.8%
